Experimental data as given in ChEMBL document CHEMBL3763058, “Design, RNA cleavage and antiviral activity of new artificial ribonucleases derived from mono-, di- and tripeptides connected by linkers of different hydrophobicity” (Bioorg Med Chem, 2016).
The source made the active and inactive calls. No cut-off for these calls is given here.

Columns and labels:
[1] = tested on: Human immunodeficiency virus 1; test: Binding affinity to HIV1 5'-[32P]HIV96 RNA assessed as time of half viral RNA cleavage of at 1 mM
[2] = tested on: Human immunodeficiency virus 1; test: Binding affinity to HIV1 5'-[32P]ON21 RNA assessed as viral RNA cleavage at 1 mM measured after 3 and 7 hrs relative to control
[3] = tested on: Human immunodeficiency virus 1; test: Binding affinity to HIV1 5'-[32P]HIV96 RNA assessed as viral RNA cleavage at 1 mM measured after 3 and 7 hrs relative to control
[4] = tested on: Human immunodeficiency virus 1; test: Binding affinity to HIV1 5'-[32P]HIV96 RNA assessed as viral RNA cleavage rate constant at 1 mM
[5] = tested on: Human immunodeficiency virus 1; test: Binding affinity to HIV1 5'-[32P]ON21 RNA in Tris-Hcl buffer assessed as RNA cleavage rate constant for 5 hrs at pH 7.5
[6] = tested on: Human immunodeficiency virus 1; test: Binding affinity to HIV1 5'-[32P]ON21 RNA in cacodylate buffer assessed as RNA cleavage rate constant for 3 hrs at pH 6.2 to 7.2
Influenza A virus [7] = test: (§1) Antiviral activity against Influenza A virus (A/WSN/33(H1N1)) infected in MDCK cells assessed as reduction in viral titer compound preincubated with virus for 24 hrs followed by host cell infection measured after 24 hrs by AEC staining based inverted microscopic analysis; format: functional, organism-based; settings: A/WSN/1933(H1N1)
Influenza A virus [8] = test: as §1, with “as” for “as reduction in”, “titer at 0.2 mM” for “titer”, “after 18” for “after 24”, “analysis (reference value: 5.2 log10 FFU/ml)” for “analysis”; format: functional, A/WSN/1933(H1N1)
Influenza A virus [9] = test: as §1, with “as” for “as reduction in”, “titer at 4 mM” for “titer”, “after 18” for “after 24”, “analysis (reference value: 5.2 log10 FFU/ml)” for “analysis”; format: functional, A/WSN/1933(H1N1)
Influenza A virus [10] = test: as §1, with “as” for “as reduction in”, “titer at 2 mM” for “titer”, “after 18” for “after 24”, “analysis (reference value: 5.2 log10 FFU/ml)” for “analysis”; format: functional, A/WSN/1933(H1N1)
MDCK = test: Cytotoxicity against MDCK cells assessed as reduction in cell viability after 24 hrs by MTT assay; format: cell-based; settings: Canis lupus familiaris
Influenza A virus [11] = test: (§2) Antiviral activity against Influenza A virus (A/WSN/33(H1N1)) infected in MDCK cells assessed as reduction in viral titer at 2 mM compound preincubated with virus for 24 hrs followed by host cell infection measured after 18 hrs by AEC staining based inverted microscopic analysis relative to control; format: functional, A/WSN/1933(H1N1)
Influenza A virus [12] = test: as §2, with “at 0.001 to 4” for “at 2”; format: functional, A/WSN/1933(H1N1)
Influenza A virus [13] = test: as §1, with “as” for “as reduction in”, “titer at 0.5 mM” for “titer”, “after 18” for “after 24”, “analysis (reference value: 5.2 log10 FFU/ml)” for “analysis”; format: functional, A/WSN/1933(H1N1)
Influenza A virus [14] = test: as §1, with “as” for “as reduction in”, “titer at 1 mM” for “titer”, “after 18” for “after 24”, “analysis (reference value: 5.2 log10 FFU/ml)” for “analysis”; format: functional, A/WSN/1933(H1N1)
Influenza A virus [15] = test: as §1, with “as” for “as reduction in”, “titer at 0.1 mM” for “titer”, “after 18” for “after 24”, “analysis (reference value: 5.2 log10 FFU/ml)” for “analysis”; format: functional, A/WSN/1933(H1N1)
Influenza A virus [16] = test: Antiviral activity against Influenza A virus (A/WSN/33(H1N1)) infected in MDCK cells assessed as reduction in viral titer at 4 mM compound preincubated with virus for 24 hrs followed by host cell infection measured after 18 hrs by AEC staining based inverted microscopic analysis; format: functional, A/WSN/1933(H1N1)

Structure (SMILES) | TIME [1] | Activity [2] | Activity [3] | K [4] | Activity [5] | Activity [6] | Activity (Influenza A virus [7]) | Activity (Influenza A virus [8]) | Activity (Influenza A virus [9]) | Activity (Influenza A virus [10]) | IC50 (MDCK) | fold change (FC) (Influenza A virus [11]) | fold change (FC) (Influenza A virus [12]) | Activity (Influenza A virus [13]) | Activity (Influenza A virus [14]) | Activity (Influenza A virus [15]) | fold change (FC) (Influenza A virus [16])
NCCCC[C@H](N)C(=O)NCCCOCCCCOCCCNC(=O)[C@@H](N)CCCCN | 20 h | 8% | 19% | 0.011 h⁻¹ | – | – | – | – | – | – | – | – | – | – | – | – | –
N[C@@H](CCC(=O)O)C(=O)NCCCCCC(=O)N[C@@H](CO)C(=O)NCCCOCCCCOCCCNC(=O)[C@H](CO)NC(=O)CCCCCNC(=O)[C@@H](N)CCC(=O)O | 17 h | 18% | 23% | 0.033 h⁻¹ | – | – | – | – | – | – | – | – | – | – | – | – | –
NCCCC[C@H](NC(=O)CCc1c[nH]cn1)C(=O)NCCCOCCCCOCCCNC(=O)[C@H](CCCCN)NC(=O)CCc1c[nH]cn1 | 8 h | 29% | 44% | 0.076 h⁻¹ | Active | inactive | – | – | – | – | – | – | – | – | – | – | –
N[C@@H](CCC(=O)OCc1ccccc1)C(=O)NCCCCCCCCCCCCNC(=O)[C@@H](N)CCC(=O)OCc1ccccc1 | 9 h | 45% | 18% | 0.053 h⁻¹ | – | – | Dose-dependent effect | 4.4 log10FFU/ml | <1 log10FFU/ml | 2.3 log10FFU/ml | > 5000 µM | – | – | – | – | – | –
NCCCC[C@H](NC(=O)CCCCCNC(=O)[C@@H](N)CCC(=O)O)C(=O)NCCCOCCCCOCCCNC(=O)[C@H](CCCCN)NC(=O)CCCCCNC(=O)[C@@H](N)CCC(=O)O | 6 h | 33% | 57% | 0.082 h⁻¹ | – | – | Dose-dependent effect | 4.9 log10FFU/ml | – | 2.2 log10FFU/ml | 200 µM | 3 | 1.5 | – | – | – | –
NCCCC[C@H](N)C(=O)NCCCCCCCCCCCCNC(=O)[C@@H](N)CCCCN | 7 h | 8% | 24% | 0.07 h⁻¹ | – | – | – | – | – | – | – | – | – | – | – | – | –
N[C@@H](CO)C(=O)NCCCCCCCCCCCCNC(=O)[C@@H](N)CO | 6 h | 13% | 28% | 0.079 h⁻¹ | – | – | – | – | – | – | – | – | – | – | – | – | –
N[C@@H](CCC(=O)O)C(=O)NCCCCCCCCCCCCNC(=O)[C@@H](N)CCC(=O)O | 2 h | 39% | 60% | 0.276 h⁻¹ | – | Active | Dose-dependent effect | 4.8 log10FFU/ml | – | – | > 5000 µM | – | 1.5 | 2.1 log10FFU/ml | <1 log10FFU/ml | – | –
NCCCC[C@H](NCCCCCNC(=O)[C@@H](N)CCC(=O)O)C(=O)NCCCCCCCCCCCCNC(=O)[C@H](CCCCN)NC(=O)CCCCCNC(=O)[C@@H](N)CCC(=O)O | 3 h | 35% | 55% | 0.254 h⁻¹ | – | Active | Dose-dependent effect | – | – | – | 500 µM | – | 1.5 | – | 3.7 log10FFU/ml | 3.8 log10FFU/ml | 1.5
NCCCC[C@H](N)C(=O)NCCCCCC(=O)N[C@@H](CO)C(=O)NCCCOCCCCOCCCNC(=O)[C@H](CO)NC(=O)CCCCCNC(=O)[C@@H](N)CCCCN | > 24 h | 11% | 10% | 0.005 h⁻¹ | – | – | – | – | – | – | – | – | – | – | – | – | –
O=C(/C=C/c1c[nH]cn1)N[C@@H](CCCCNC(=O)OCc1ccccc1Cl)C(=O)NCCCOCCCCOCCCNC(=O)[C@H](CCCCNC(=O)OCc1ccccc1Cl)NC(=O)/C=C/c1c[nH]cn1 | 7 h | 42% | 52% | 0.11 h⁻¹ | – | – | Dose-dependent effect | 4.5 log10FFU/ml | – | 4 log10FFU/ml | 700 µM | – | – | – | – | – | –
N=C(N)NCCC[C@H](N)C(=O)NCCCOCCCCOCCCNC(=O)[C@@H](N)CCCNC(=N)N | 10 h | 25% | 38% | 0.062 h⁻¹ | – | – | – | – | – | – | – | – | – | – | – | – | –
N[C@@H](CO)C(=O)NCCCOCCCCOCCCNC(=O)[C@@H](N)CO | > 24 h | 3% | 6% | 0.002 h⁻¹ | – | – | – | – | – | – | – | – | – | – | – | – | –
